Test [1] addresses humanized farnesyl pyrophosphate synthase (HsFPPS) (Homo sapiens (Human), UniProt P14324). The experiment in a line: In vitro HsFPPS enzyme activity assay. Format: biochemical. How it is done:
The measurement method is briefly described as follows: the expression of HsFPPS with 6 consecutive His at the N-terminus was induced in vitro, collected, and purified by Ni column. An in vitro HsFPPS enzyme activity assay was performed in a 96-well plate with 200 μl of solution per well. The buffer of the system was 25 mM HEPES, 2.5 mM MgCl2, pH 7.4. Using DMAPP and IPP as reaction substrates, the change of the UV value at a wavelength of 360 nm was monitored in real time in a phosphate lyase system. The ORIGIN 8.0 software was used to plot and fit. The IC50 values for the inhibition of FPPS by the TH-Z80 series of compounds were shown in the following table, in micromoles per liter (μM).
HsFPPs with 6 consecutive His at the N-terminus was induced to express in vitro, collected, and purified by Ni column. In vitro HsFPPs enzymatic activity assay was performed in a 96-well plate at 200 μl of solution per well. The buffer of the system was 25 mM HEPES, 2.5 mM MgCl2, pH 7.4. Using DMAPP and IPP as reaction substrates, the changes of UV at 360 nm were monitored in real-time in phosphate lyase system. ORIGIN 8.0 software was used to plot and fit.

For test [2], the system named is PvGGPPS (geranylgeranyl pyrophosphate synthase from Plasmodium). Briefly: In vitro PvGGPPS enzymatic activity assay. Conditions: GPP and IPP substrates. The class given is biochemical. How it is done: PvGGPPs with 6 consecutive His at the N-terminus was induced to express in vitro, collected, and purified by Ni column. In vitro PvGGPPs enzymatic activity assay was performed in a 96-well plate at 200 μl of solution per well. The buffer of the system was 25 mM HEPES, 2.5 mM MgCl2, pH 7.4. Using GPP and IPP as reaction substrates, a 360 nm continuous spectrophotometric detection was performed in a phosphate lyase system. ORIGIN 8.0 software was used to plot and fit.

The subject of test [3] is Plasmodium falciparum 3D7. The experiment in a line: Test of plasmodium activity (SYBR-GREEN1). Format: cell-based. Conditions: infected erythrocytes, 72 hours; read-out: Malaria (IC50/μM). How it is done: Plasmodium falciparum 3D7 was cultured with […] medium mixed with 10% human O-type blood serum and 25 mM HEPES. The cultivation process was maintained in a carbon dioxide incubator under 5% carbon dioxide. In vitro drug testing experiments were performed on a 96-well plate. The test drug was dissolved in PBS and pre-diluted with complete medium. Infected erythrocytes were cultured in triplicate for 72 hours in 3-fold serial dilutions of drug. Then an equal amount of SYBR-GREEN1 was added to each well. The detection was then performed at 485 nm for excitation light and 538 nm for emitted light. […] ORIGIN 8.0 software was used to plot and fit.

A further test concerns MDA-MB-231 cells. Briefly: MDA-MB-231 proliferation MTT test. Format: cell-based, human. Conditions: 72 hours. How it is done: • Drug dissolution: […] The prepared bisphosphonate stock solution was diluted with DMEM complete medium. The maximum concentration was 1 mM. The dilution was performed serially in a ratio of 1:3.2 with a total of 11 concentration gradients; a. MDA-MB-231 cells were digested the day before. Centrifugation was performed at 1000 rmp for 3 min. The cells were counted. The cells were seeded into a 96-well plate at 3000 cells/well in a volume of 100 μl per well and cultured for 14-16 h. It should be noted that the cell count should be accurate, and the amount of cells seeded per well should be consistent. The cell suspension can be gently shaken in the intermittence of plating, or a row of cells were plated and the cell suspension was pipetted gently with a pipette. The speed of pipetting into the 96-well plate with a pipette should not be too fast or too slow, in order to avoid uneven distribution of cells in the plate, affecting the experiments; the wells at the fringe of the 96-well plate will evaporate slightly faster and the concentration of the solution will change slightly faster. Under normal situation, the central 60 wells should be selected for stimulation. Also, the pipetted liquid should be prevented from creating bubbles. b. After the cells had adhered, the liquid in the 96-well plate was pipetted out and discarded. […] c. 72 hours after the action of drug, the prepared MTT solution (immediately before use, a certain amount of MTT powder was weighed and dissolved in PBS at 5 mg/ml, under dark, filter with 0.22 filter membrane) was added directly to each well with 20 μl per well and continued to culture for 4 hours; d. The filter paper (which can be replaced by an absorbent paper) was laid, and the plate was inverted gently (be careful to prevent the crystal in the well from dropping). After the liquid in the wells was removed, 150 μl of DMSO was added to dissolve the crystals, and the mixture was shaken thoroughly with a shaker for a period of time just to dissolve the crystals. The absorbance (OD value) of each well was measured at 570 nm with ELIASA. The mean value of blank control was calculated as OD Blank. OD value for each well=OD measured-OD Blank. ODNT mean value was calculated. […] Mean and standard error were then calculated. The mean and standard error of each group of drug concentration (uM) and corresponding drug inhibition rate were fitted by Graph Prism software to obtain the IC50 of the drug.

Test [4] addresses HsGGPPS (humanized geranylgeranyl pyrophosphate synthase) (Homo sapiens (Human), UniProt O95749). Briefly: HsGGPPS enzyme inhibition test. Format: biochemical. How it is done: The inhibitory activities of compounds TH-Z144 and TH-Z145 on GGPPS (geranylgeranyl pyrophosphate synthase) were tested by referring to the expression and purification method for HsGGPPS (humanized geranylgeranyl pyrophosphate synthase) in the reference (Szabo, C. M., et al., Inhibition of Geranylgeranyl Diphosphate Synthase by Bisphosphonates and Diphosphates: A Potential Route to New Bone Antiresorption and Antiparasitic Agents. Journal of Medicinal Chemistry, 2002. 45 (11): p. 2185-2196.) and the method for testing enzyme activity in the reference (Zhang, Y., et al., Lipophilic Bisphosphonates as Dual Farnesyl/Geranylgeranyl Diphosphate Synthase Inhibitors: An X-ray and NMR Investigation. Journal of the American Chemical Society, 2009. 131 (14): p. 5153-5162.) The data of the activity test were as follows: […]

Test [5] deals with anti-OVA IgM and IgG antibodies. Briefly: OVA evaluation system: adjuvant activity in antibody titer in mice. The class given is in vivo. Conditions: GGPPS inhibitors 100 μg with OVA, right sole, Day 7 and Day 14. How it is done: OVA evaluation system was used to determine adjuvant activity in antibody titer.
Mice of C57B/6 strain were used. The mice in the experimental group were injected with the obtained mixture of each of the statins and OVA antigen through soles injection, with 20 μl for each mouse. The mice in the control group were injected with a 1:1 mixture of PBS or DMSO (10 μl) and 10 μl OVA antigen (PBS or DMSO is 10 μl, respectively, and the antigen is 10 μl) through soles injection, with 20 μl for each mouse. On Day 7 and Day 14 after immunization, blood was taken from the mice's orbits, with 100 μl was taken from each mouse. The obtained blood was left at 4° C. overnight, and centrifuged at 6000 rpm for 8 min. The supernatant serum was removed and the titers of anti-OVA IgM and IgG antibodies in the serum were determined.
Test of the OVA antibody titer: The OVA protein was diluted to a concentration of 2 μg/ml with a carbonate solution of pH 9.6, coated in a 96-well ELISA plate at 50 μl per well, and left at 4° C. overnight. The ELISA plate was washed five times with PBS containing 0.05% Tween 20, blocked with 1% BSA solution at 200 μl per well, and incubated at room temperature for 2 h. The ELISA plate was washed five times with PBST (Phosphate Buffered Saline with Tween), a 2-fold serial dilution of the mouse serum after immunized with OVA was added at 50 μl per well and incubated at room temperature for 2 h. After the ELISA plate was washed five times with PBST, HRP (horseradish peroxidase)-labeled goat-anti-mouse IgM or IgG antibody was added and incubated at room temperature for 45 min. The ELISA plate was washed five times with PBST, and a color developing solution of sodium citrate OPD (o-phenylenediamine) was added. After 10 min of color development in the dark, sulfuric acid was added to terminate the reaction. The reading was performed with ELIASA OD490. The maximum serum dilution factor, when the ratio of light absorptions of the experimental group to the control group was >2.0, was the titer of the anti-OVA antibody in the serum.
Each test compound was formulated at a concentration of 2 mg/ml and the concentration of OVA antigen was 2 mg/ml. Each compound was mixed with OVA at 1:1. Each C57B/6 mouse in the experimental group was injected with 100 μl of the mixture (containing 50 μl of the antigen and 50 μl of the compound) by intramuscular injection at the right thigh. On Day 7 and Day 14 after immunization, blood was taken from the mice's orbit, and 100 μl was taken for each mouse. The obtained blood was allowed to stand at 4° C. overnight, and centrifuged at 6000 rpm for 8 min. The supernatant serum was removed, and the titers of anti-OVA IgM and IgG antibodies in the serum were determined.
Method: each of the test compounds (the 10 bisphosphonates as described above) was mixed with the OVE antigen at 1:1, and the concentrations of bisphosphonic acid and OVA were both 10 mg/ml. Mice of C57B/6 strain were used. The mice in the experimental group were injected with the mixture of each of the test compounds and OVA antigen through soles injection, with 20 μl for each mouse, and wherein the amounts of OVA antigen and each of the test compounds were both 100 ug. The mice in the control group were injected with a 1:1 mixture of […] and 10 μl OVA antigen through sole injection. On Day 7 and Day 14 after immunization, blood was taken from the mice's orbits, and 100 μl was taken from each mouse.
The obtained blood was left at 4° C. overnight, and centrifuged at 6000 rpm for 8 min. The supernatant serum was removed, and the titers of anti-OVA IgM and IgG antibodies in the serum were determined.
Method: TH-Z144 and TH-Z145 were prepared at the concentration of 10 mg/ml, the concentration of OVA antigen was also 10 mg/ml, and the compound and the antigen were mixed at 1:1. Mice of C57B/6 strain were used.

Test [6] shares this test system. The experiment in a line: Combined adjuvant effect of FPPS inhibitor and TLR agonist, OVA titer. The class given is in vivo, mice. Conditions: soles of right feet. How it is done: Two compounds, TH-Z93 and Imiquimod, were formulated at a concentration of 4 mg/ml, and OVA antigen at a concentration of 10 mg/ml. When used alone, 5 μl of TH-Z93 or imiquimod was added as an adjuvant and mixed with 10 μl of antigen and 5 μl of PBS. When two adjuvants were used in combination, each of the adjuvants were added in an amount of 5 μl and mixed with 10 μl of antigen, and the total volumes were 20 μl. The mice used are of C57B/6 strain. An equal volume of PBS without any adjuvant was used for mice in the control group. The mice was injected at the soles of the right feet. On Day 7 and Day 14 after immunization, blood was taken from the mice's orbits, and 100 μl was taken for each mouse. The obtained blood was left at 4° C. overnight, and then the serum was separated. The titers of anti-OVA IgM and IgG antibodies in the serum were determined.

[7] abbreviates: Example 15 table, read-out: HsFPPS (IC50/μM).
Setting [8] is: TH-Z80 series, DMAPP and IPP substrates, pH 7.4, read-out: IC50 for inhibition of FPPS.

Like-named read-outs stand apart in the source and are kept apart here.

Chain of humanized farnesyl pyrophosphate synthase (HsFPPS) (P14324 whole entry, looked up): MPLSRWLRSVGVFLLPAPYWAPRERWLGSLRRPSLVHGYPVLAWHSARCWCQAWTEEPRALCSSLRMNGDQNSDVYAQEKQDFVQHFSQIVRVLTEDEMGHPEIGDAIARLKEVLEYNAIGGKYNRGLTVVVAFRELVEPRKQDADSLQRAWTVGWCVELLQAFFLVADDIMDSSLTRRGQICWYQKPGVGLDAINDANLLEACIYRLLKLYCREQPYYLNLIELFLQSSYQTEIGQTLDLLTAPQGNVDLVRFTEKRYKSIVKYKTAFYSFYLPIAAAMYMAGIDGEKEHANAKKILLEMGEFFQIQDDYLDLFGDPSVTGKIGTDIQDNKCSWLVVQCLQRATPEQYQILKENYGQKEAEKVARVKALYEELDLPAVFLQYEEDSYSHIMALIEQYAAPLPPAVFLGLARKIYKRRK
Chain of HsGGPPS (humanized geranylgeranyl pyrophosphate synthase) (O95749 whole entry, looked up): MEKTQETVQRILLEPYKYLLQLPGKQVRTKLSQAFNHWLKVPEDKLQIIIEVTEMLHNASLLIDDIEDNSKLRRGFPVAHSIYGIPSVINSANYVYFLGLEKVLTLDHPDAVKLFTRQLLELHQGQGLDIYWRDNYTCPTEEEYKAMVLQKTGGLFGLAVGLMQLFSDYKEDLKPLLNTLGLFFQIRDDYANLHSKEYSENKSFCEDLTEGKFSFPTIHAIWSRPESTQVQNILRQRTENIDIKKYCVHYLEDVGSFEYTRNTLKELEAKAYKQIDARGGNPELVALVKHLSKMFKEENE

For `CCCCCOc1ccc2c(c1)ncn2CC(O)(P(=O)(O)O)P(=O)(O)O` [TH-Z151], the IC50 in test [1] (setting [7]) turned out to be 0.12 µM; in test [1] (setting [8]), 0.12 µM; in test [2], 0.46 µM; in test [3], 1.25 µM; in the test on MDA-MB-231 cells it was 406 µM.

Regarding `CCCCCCOc1cccc(CC(P(=O)(O)O)P(=O)(O)O)c1` [TH-Z144, (2-(3-(hexyloxy)phenyl)ethane-1,1-diyl)bisphosphonic acid], the “IC50 (inhibition of GGPPS)” value in test [4] is given as “effectively inhibit the activity of GGPPS”. The IC50 in test [4] (read-out: IC50 (inhibition of GGPPS)) was 2.76 µM. Moreover, in test [5], the “IgM and IgG antibody titers vs PBS control” value is on record as “significantly higher titers”.

With `CC(C)Cn1cnc2c(N)nc3ccccc3c21` [imiquimod, reference compound], the “antibody titers vs PBS control, adjuvant used alone” value in test [6] is “significant high titers”.

As for `CCCCOc1ccc2c(c1)ncn2CC(O)(P(=O)(O)O)P(=O)(O)O` [TH-Z150], the IC50 in test [1] (setting [7]) was determined as 0.14 µM; in test [1] (setting [8]), 0.14 µM; in test [2] it was 0.28 µM; in test [3], 0.78 µM; in the test on MDA-MB-231 cells, 128 µM.

`COc1ccc2c(c1)ncn2CC(O)(P(=O)(O)O)P(=O)(O)O` [TH-Z79]: the IC50 in test [1] (setting [7]) is 0.1 to 0.3 µM; in test [1] (setting [8]), 0.1 to 0.3 µM; in test [2], 0.61 µM; in test [3], 0.96 µM; with MDA-MB-231 cells it was 50.9 µM.

The values above are taken from patent publication US20250367283A1, “MEVALONATE PATHWAY INHIBITOR AS HIGHLY-EFFICIENT VACCINE ADJUVANT” (Tsinghua University, priority 2015, published 2025).
